# Assay results from US7094533B1, “Therapeutic and diagnostic applications of prostatic acid phosphatase in prostate cancer” (Board of Regents of the University of Nebraska, priority 1999, dated 2006).
# Where two headings read alike, the source gives them in different places.
# T1: PAcP (Homo sapiens, UniProt P15309)
# T1 sequence (P15309 33-386): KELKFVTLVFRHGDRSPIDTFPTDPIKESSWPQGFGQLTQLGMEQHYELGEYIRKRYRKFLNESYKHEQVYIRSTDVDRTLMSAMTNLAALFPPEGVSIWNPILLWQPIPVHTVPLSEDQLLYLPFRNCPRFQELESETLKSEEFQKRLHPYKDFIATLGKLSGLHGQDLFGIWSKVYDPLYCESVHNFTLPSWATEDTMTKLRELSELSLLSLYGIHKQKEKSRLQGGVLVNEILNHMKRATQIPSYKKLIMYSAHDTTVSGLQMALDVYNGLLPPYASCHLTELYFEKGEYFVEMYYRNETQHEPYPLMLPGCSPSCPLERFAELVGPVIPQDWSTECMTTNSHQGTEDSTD
# Key:
# [1] = target: T1, PAcP; conditions: 20 nM okadaic acid; cited from earlier work
# [2] = system: human AR cDNA-transfected PC-3 cells; conditions: 10 nM R1881, 24 h, human AR cDNA-transfected PC-3 cells (FIG. 6A)
# Experimental: Chloramphenicol Acetyltransferase Assay. Cells that had been grown in medium containing 5% charcoal-stripped FBS were transfected with the pMSG-CAT reporter plasmid, pSG5 vector DNA, or pSG5-AR plasmid by the liposome-mediated transfection method (Lin et al., 1992, Cancer Res. 52, 4600–4607; Felgner et al., 1987, Proc. Natl. Acad. Sci. U.S.A. 84:7413–7417). After a 24-h incubation period, cells were maintained in medium supplemented with 5% steroid-reduced FBS in the presence or absence of 10 nM R1881, a synthetic androgen, in ethanol (0.01%, v/v). After an additional 24-h incubation, CAT assays were performed as described (Felgner et al., 1987, Proc. Natl. Acad. Sci. U.S.A. 84:7413–7417; Moszowicz et al., 1993, Mol. Endocrinol. 7:1861–869).
# [3] = system: AR in PC-3 cells; experiment: Chloramphenicol acetyltransferase assay (pMSG-CAT reporter); format: cell-based, human; conditions: 10 nM R1881, 24 h, PC-3 cell lysate proteins (FIG. 6A)
# Description: (§1) Chloramphenicol Acetyltransferase Assay.
# [4] = system: DU 145 cells; experiment: as above; format: cell-based, human; conditions: 10 nM R1881, DU 145 cells
# Description: as §1
# [5] = system: cellular PAcP; conditions: clone 33 LNCaP cells exposed to DHT (FIG. 3B)
# Description: (§2) Cells were harvested for preparation of total RNA and total cell lysate proteins as described below.
# Western Blot Analysis. Subconfluent cells were trypsinized, pelleted, and rinsed with Hepes-buffered saline, pH 7.0, and then lysed in a hypotonic cell lysis buffer containing various protease inhibitors as described above. […] The relative levels of AR and PAcP protein were semiquantified by densitometric analyses of autoradiograms with different exposure time periods utilizing Molecular Dynamics equipment and software program.
# [6] = system: PC-411 and PC-416 cells; conditions: p<0.05 (FIG. 6D)
# Experimental: (§3) Androgen Effect on Cell Growth, Protein Tyrosine Phosphorylation, PSA, and PAcP Expression. Cells were plated at a density of approximately 1×10^4 cells/cm^2 in RPMI 1640 medium containing 7% FBS and maintained in a 37° C. incubator (5% CO^2) for 3 days (Lin et al., 1992, Cancer Res. 52, 4600–4607; Lin et al., 1993, Arch. Biochem. Biophys. 300:384–390; both are incorporated by reference herein). To investigate androgen effect on cell growth and protein tyrosine phosphorylation, cells that had been maintained in the steroid-reduced medium containing 5% heat-inactivated dialyzed FBS for an additional 48 h were grown in fresh steroid-reduced medium in the presence or absence of different concentrations of DHT. After a time period specified in each set of experiments, cells were harvested and then counted using a hemocytometer or Coulter Counter (Lin et al., 1992, Cancer Res. 52, 4600–4607; Lin et al., 1994, Differentiation 57:143–149; incorporated by reference herein). The cell number in the control well was defined as ratio 1.0.
# [7] = system: LNCaP-23 and LNCaP-34 cells; conditions: LNCaP-23 and LNCaP-34 versus clone 81 parent and LNCaP-CMV cells, different concentrations of DHT (FIG. 5D)
# Experimental: as §3
# [8] = system: PSA mRNA; conditions: each clone of LNCaP cells (33, 51, 81), 10 nM DHT, 3 days
# Description: as §2
# [9] = system: DU145 cells; conditions: counted at day 3 (FIG. 1A)
# Description: (§4) Cell Cultures. Human prostate carcinoma cell lines, LNCaP-FGC (LNCaP) (Horoszewicz et al., 1983, Cancer Res. 43:1809–1818), DU145 (Stone et al., 1978, Int. J. Cancer 21:274–281), and PC-3 (Kaighn et al., 1979, Invest. Urol. 17:16–23), were originally obtained from the American Type Culture Collection (Rockville, Md.) and routinely maintained in RPMI 1640 medium supplemented with 7% FBS, 1% glutamine, and 0.5% gentamicin, as described previously (Lin et al., 1992, Cancer Res. 52, 4600–4607; Lin et al., 1986, Mol. Cell. Biol. 6:4753–4757). Cultured cells were fed twice per week and trypsinized once per week; one passage equals one trypsinization. […] For experiments, LNCaP cells that had passage numbers less than 33 were designated as clone 33, passage numbers over 80 as clone 81, and passage numbers between 34 and 80 as clone 51. To investigate basal growth rates of different subcloned cells, cells were seeded and maintained in steroid-reduced medium containing 5% heat-inactivated dialyzed FBS. To quantify cell growth, attached cells were trypsinized and neutralized with medium-FBS. The total cell number including the suspended and attached cells were counted using a hemocytometer via trypan blue exclusion or a Coulter Counter Z1 model (Lin et al., 1992, Cancer Res. 52, 4600–4607; Lin et al., 1994, Differentiation 57:143–149).
# as §3
# (§5) In FIG. 1A, the total cell number was counted at day 3 for PC-3 and DU145 cells and at day 4 fro LNCaP cells.
# [10] = system: clone 81 LNCaP cells; conditions: 10 nM DHT, 7-day treatment, clone 81 LNCaP (FIG. 2A)
# Description: as §4, §3, §5
# [11] = system: clone 33 LNCaP cells; conditions: 10 nM DHT
# Description: as §4, §3, §5
# [12] = system: PC-3 cells; conditions: counted at day 3 (FIG. 1A)
# Description: as §4, §3, §5
# [13] = system: PAcP mRNA in LNCaP cells
# Description: Nuclear run-on experiment. […] Transcription was continued in the presence of “P-labeled UTP (Amersham. Life Science Inc.). The radioactive RNA was hybridized with a slot blot membrane containing the full length of PAcP cDNA.
# [14] = system: PC-3 xenograft tumors; experiment: Subcutaneous xenograft tumors in male athymic mice, PC-3 cells; format: in vivo; conditions: for xenograft tumor size as % of PC-3 xenograft tumors: 42 days; for xenograft tumor size: 42 days after cell injection (PC-3 612 mm^3)
# Experimental: (§6) Xenograft animal experiments. The protocol for the subcutaneous xenograft animal model in athymic mice was essentially as that described in Lin et al., 1995 (The Prostate 26:194–204). For comparing the tumorigenicity of different LNCaP cells, 1×10^6 cells were suspended in 0.1 ml medium, mixed with 0.1 ml matrigel (Collaborative Biomedical, MA), and injected subcutaneously in the hind flank of male mice. For examining the hormone effect on tumor development, 5×10^5 cells in matrigel were injected into female mice. For the PC-3 cell system, 1×10^6 cells in 0.2 ml medium suspension without matrigel were injected into male mice. The animal maintenance and the tumor measurement were followed the NIH guidelines and the specific guideline by the University of Nebraska Medical Center as previously described (Lin et al., 1995, The Prostate 26:194–204).
# [15] = system: PC-416 cells; experiment: Anchorage-independent growth, soft agar analysis; format: cell-based, human; conditions: PC-416 cells (FIG. 9C)
# Experimental: (§7) Anchorage-independent growth. Anchorage-independent growth of prostate cancer cells was performed by soft agar analysis (Weiner et al., 1989, Oncogene 4:1175–1183; Horoszewicz et al., 1983, Cancer Res. 43:1809–1818). Briefly, cells were seeded in 0.25% agarose on the top of a base layer containing 0.6% agarose. One day after seeding, cell clumps containing more than one cell were excluded and the colony number was counted after 3 weeks of incubation.
# [16] = system: PAcP cDNA transfected C-81 LNCaP cells; experiment: Anchorage-independent growth, soft agar analysis; format: cell-based, human; conditions: LNCaP-23, -28, -40 cells, colonies after 3 weeks (FIG. 9B)
# Experimental: as §7
# [17] = system: LNCaP xenograft tumors; experiment: Subcutaneous xenograft tumors in male athymic mice, LNCaP cells; format: in vivo; conditions: 28 days after inoculation (C-81 LNCaP 241)
# Experimental: as §6
# [18] = system: LNCaP xenograft tumors; experiment: Subcutaneous xenograft tumors in female athymic mice, LNCaP cells; format: in vivo; conditions: for mice that did not develop any tumor: female, after 100 days of inoculation; for averaged tumor size: 70 days
# Experimental: as §6
molecule,measurement,setting,value
C=C1[C@@H](O)[C@@H]2O[C@]3(CC[C@H](/C=C/[C@@H](C)[C@@H]4CC(C)=C[C@@]5(O[C@H](C[C@@](C)(O)C(=O)O)CC[C@H]5O)O4)O3)CC[C@H]2O[C@@H]1[C@@H](O)C[C@H](C)[C@H]1O[C@@]2(CCCCO2)CC[C@H]1C [okadaic acid],effect on PAcP activity,[1],not affected
C[C@]1(O)CC[C@H]2[C@@H]3CCC4=CC(=O)CCC4=C3C=C[C@@]21C [R1881],stimulation of the CAT activity,[2],~9 fold
same,stimulation of the CAT activity,[3],~2 fold
same,effect on the CAT activity,[4],did not have an effect
"C[C@]12CCC(=O)C[C@@H]1CC[C@@H]1[C@@H]2CC[C@]2(C)[C@@H](O)CC[C@@H]12 [DHT, 5α-dihydrotestosterone]",cellular PAcP level,[5],diminished level
same,effect on cell growth,[6],stimulated significantly
same,degree of androgen stimulation of cell growth,[7],enhanced
same,"induction of PSA mRNA, normalized to GAPDH",[8],2–3 fold
same,effect on cell growth,[9],did not have a significant effect
same,stimulation of cell growth,[10],~20%
same,stimulatory effect on cell growth,"[11]; 7-day treatment, clone 33 LNCaP (FIG. 2A)",≤ 2.5 fold
same,stimulation of cell growth,"[11]; clone 33 LNCaP, steroid-reduced medium, counted at day 4 (FIG. 1A)",1.5–2 fold
same,effect on cell growth,[12],did not have a significant effect
same,transcription of PAcP mRNA,[13]; high density LNCaP cells (FIG. 11B),suppressed
same,transcription of PAcP mRNA,[13]; low density LNCaP cells (FIG. 11B),stimulated
"cellular PAcP: cellular form of human prostatic acid phosphatase, expressed from full-length human PAcP cDNA driven by a pCMV-neo expression vector (protein) KELKFVTLVFRHGDRSPIDTFPTDPIKESSWPQGFGQLTQLGMEQHYELGEYIRKRYRKFLNESYKHEQVYIRSTDVDRTLMSAMTNLAALFPPEGVSIWNPILLWQPIPVHTVPLSEDQLLYLPFRNCPRFQELESETLKSEEFQKRLHPYKDFIATLGKLSGLHGQDLFGIWSKVYDPLYCESVHNFTLPSWATEDTMTKLRELSELSLLSLYGIHKQKEKSRLQGGVLVNEILNHMKRATQIPSYKKLIMYSAHDTTVSGLQMALDVYNGLLPPYASCHLTELYFEKGEYFVEMYYRNETQHEPYPLMLPGCSPSCPLERFAELVGPVIPQDWSTECMTTNSHQGTEDSTD",xenograft tumor size as % of PC-3 xenograft tumors,"[14]; PC-412, male mice",about 38%
same,xenograft tumor size,"[14]; PC-412, male mice",233 mm^3
same,xenograft tumor size as % of PC-3 xenograft tumors,"[14]; PC-416, male mice",~23%
same,xenograft tumor size,"[14]; PC-416, male mice",138 mm^3
same,anchorage-independent growth,[15],diminished
same,decrease of anchorage-independent growth,[16],more than 100 folds
same,averaged tumor size,[17]; LN-23 cells,143 mm^3
same,averaged tumor size,[17]; LN-34 cells,115 mm^3
same,tumor induction,"[18]; LN-23 and LN-40 cells, female mice, 35 days after inoculation (clone-81 782 mm^3)",no detectable tumor
same,mice that did not develop any tumor,[18]; LN-23 mice,20%
same,averaged tumor size,"[18]; LN-23 tumors, female mice",347 mm^3
same,mice that did not develop any tumor,[18]; LN-40 mice,50%
same,averaged tumor size,"[18]; LN-40 tumors, female mice",214 mm^3
